The subject of one assay is HCT 116 (PI3Kα H1047R). The assay is described as follows: pAKT (T308) ELISA assay, HCT 116. The format is cell-based. The following applies: Homo sapiens, PI3KαH1047R, IGF1, read-out: Cellular pAKT (T308) IC50 HCT 116. The protocol:
(§1) In another embodiment, the pAKT ELISA Assay was performed by seeding cells onto 96-well plates (Corning, 3904) in their respective growth media at the densities listed in Table 3. Cells were incubated at 37° C., 5% CO2 for 48 h (except MDA-MB-453 cells which were cultured in the absence of CO2). Compounds were serially diluted in DMSO and subsequently diluted in serum-free DMEM. Test compounds were added to cells in serum-free DMEM at a final concentration of 0.3% DMSO and incubated for 3 h. Cells were lysed with 130 μL of ice-cold RIPA lysis buffer (50 mM Tris-HCl, pH 7.5; 0.5% sodium deoxycholic acid; 1% Triton X-100; 0.1% SDS; 150 mM NaCl) with protease and phosphatase inhibitors (1 mM EDTA, 1 mM NaF, 20 mM β-glycerophosphate, 1 mM Na-orthovanadate, Complete-Mini EDTA-free, Roche, 11836170001, and Phosphatase Inhibitor Cocktail I, Sigma, P2850), directly in 96-well plates. Cells were lysed on ice for 60-120 min at 4° C. The supernatants were added directly to capture ELISA plates previously pre-coated with rabbit anti-AKT capture antibody. […] The wells were measured for luminescence using a Wallac plate reader at wavelength of 560 nm. After normalization of pAKT signal to total AKT1 signal, IC50 values were determined relative to the DMSO-treated control.

Assay [1] concerns MDA-MB-453 (PI3Kα H1047R). The experiment in a line: pAKT (T308) ELISA assay, MDA-MB-453. The format is cell-based. Particulars: Homo sapiens, PI3KαH1047R, hereg, read-out: Cellular pAKT (T308) IC50 MDA-MB-453. The procedure: as §1
The target in another assay is PI3Kγ (Homo sapiens, UniProt P48736). The experiment in a line: PI3K biochemical assay, PI3Kγ. Particulars: PIP2 as substrate. The protocol: PI3Kα activity is measured as the percent of ATP consumed following the kinase reaction using luciferase-luciferin-coupled chemiluminescence. Reactions were conducted in 384-well white, medium binding microtiter plates (Greiner). Kinase reactions were initiated by combining test compounds, ATP, substrate (PIP2), and kinase in a 20 μL volume in a buffer solution. The standard PI3Kalpha assay buffer is composed 50 mM Tris, pH 7.5, 1 mM EGTA, 10 mM MgCl2, 1 mM DTT and 0.03% CHAPS. The standard assay concentrations for enzyme, ATP, and substrate are 1.5 nM, 1 μM, and 10 μM, respectively. The reaction mixture was incubated at ambient temperature for approximately 2 h. Following the kinase reaction, a 10 μL aliquot of luciferase-luciferin mix (Promega Kinase-Glo) was added and the chemiluminescence signal measured using a Victor2 plate reader (Perkin Elmer). Total ATP consumption was limited to 40-60% and IC50 values of control compounds correlate well with literature references. Substituting PI3Kα with PI3Kβ, PI3Kγ, or PI3Kδ, the inhibitory activity of the compounds for the other isoforms of I3K were measured.

Bounds are passed on as bounds.

PI3Kγ, sequence (P48736 whole entry): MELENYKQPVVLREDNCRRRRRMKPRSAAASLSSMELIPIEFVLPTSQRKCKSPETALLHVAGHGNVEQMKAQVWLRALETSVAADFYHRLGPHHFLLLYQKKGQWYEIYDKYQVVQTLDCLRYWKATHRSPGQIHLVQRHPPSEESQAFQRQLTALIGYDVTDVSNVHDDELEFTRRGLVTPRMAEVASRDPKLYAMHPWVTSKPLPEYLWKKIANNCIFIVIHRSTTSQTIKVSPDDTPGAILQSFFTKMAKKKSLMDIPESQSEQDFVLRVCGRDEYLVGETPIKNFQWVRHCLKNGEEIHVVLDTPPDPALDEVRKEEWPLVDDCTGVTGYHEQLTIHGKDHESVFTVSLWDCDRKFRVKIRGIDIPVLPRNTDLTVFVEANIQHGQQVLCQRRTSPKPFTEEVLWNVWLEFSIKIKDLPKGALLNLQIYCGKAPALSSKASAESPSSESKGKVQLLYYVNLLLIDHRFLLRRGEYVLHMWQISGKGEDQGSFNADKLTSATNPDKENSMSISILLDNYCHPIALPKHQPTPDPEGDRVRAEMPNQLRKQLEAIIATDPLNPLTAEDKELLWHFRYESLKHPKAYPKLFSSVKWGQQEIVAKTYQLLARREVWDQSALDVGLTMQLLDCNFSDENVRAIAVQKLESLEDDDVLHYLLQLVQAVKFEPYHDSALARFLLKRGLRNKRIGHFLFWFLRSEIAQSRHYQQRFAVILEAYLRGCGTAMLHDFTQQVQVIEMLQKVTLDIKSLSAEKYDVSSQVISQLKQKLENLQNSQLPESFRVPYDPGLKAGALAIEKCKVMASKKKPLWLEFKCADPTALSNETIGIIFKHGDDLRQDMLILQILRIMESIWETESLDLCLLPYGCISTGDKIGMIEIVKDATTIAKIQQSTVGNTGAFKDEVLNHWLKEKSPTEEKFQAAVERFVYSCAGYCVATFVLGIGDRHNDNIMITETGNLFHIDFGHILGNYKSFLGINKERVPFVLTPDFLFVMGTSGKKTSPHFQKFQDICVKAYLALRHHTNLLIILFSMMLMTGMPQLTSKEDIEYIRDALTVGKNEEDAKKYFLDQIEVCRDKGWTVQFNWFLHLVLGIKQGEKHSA

With `Cc1cc(C(C)Nc2ccccc2)c2nc(N3CCOCC3)cc(=O)n2c1` (stereo not drawn) [TGX-221, 7-methyl-2-(4-morpholinyl)-9-[1-(phenylamino)ethyl]-4H-pyrido[1,2-a]pyrimidin-4-one], the concentration for half-maximal inhibition (IC50) in the assay on HCT 116 (PI3Kα H1047R) was 26.4 µM; in assay [1], over 30 µM; against PI3Kγ, 1.68 µM.
